Data published in patent publication US4214093A, “Amino- or guanidino-1,2,3,4-tetrahydro-1-naphthoic esters” (Torii & Co., Ltd., priority 1977, dated 1980).
Like-named read-outs stand apart in the source and are kept apart here.

Tests used:
[1] = system: clotting activity of thrombin; assay: Inhibitory activity on plasma clotting (rabbit platelet poor plasma, thrombin-induced); assay type: biochemical
Procedure: Blood was drawn from carotid artery of an ether anesthetized rabbit with 1/10 volume of 3.8% sodium citrate. Platelet poor plasma (PPP) was prepared from citrated blood which was centrifuged at 3,000 r.p.m. for 15 minutes at 4° C. PPP, 0.9 ml, was taken into cell, 10μ of a compound solution was added and incubated at 37° C. for 10 minutes. […] Compounds were dissolved in distilled water or 50% dimethyl sulfoxide (0.5% final concentration).

[2] = system: thrombin; assay: Inhibitory activity on thrombus formation: protection from lethal thrombin injection in mice; assay type: in vivo, mice (ddY strain); settings: 10 minutes before thrombin 300 NIH units/kg i.v., No. 91 in 2.5% gum arabic
Procedure: White male mice (ddY strain), 4 weeks age and weighing 18-27 g, were used throughout the experiments. […] The intravenous injection of 300 NIH units/kg of thrombin over 30 seconds into mice was lethal to all animals. The compounds were intraperitoneally administered in doses of 1, 10, and 100 mg/kg in saline unless otherwise described.
Compounds were intraperitoneally administered 10 minutes before thrombin injection. Compound No. 91 was dissolved in 2.5% gum arabic.

[3] = target: T1, Trypsin (Bos taurus, UniProt P00760); assay: Inhibitory effect on ester-hydrolyzing activity of trypsin (TAMe substrate); assay type: biochemical; settings: for IC50: pH 8.6, 37° C., Table 4 bracketed value, read-out: Trypsin ID50; for inhibition at 1000 µM: read-out: Trypsin percent inhibition
T1 sequence (P00760 24-246): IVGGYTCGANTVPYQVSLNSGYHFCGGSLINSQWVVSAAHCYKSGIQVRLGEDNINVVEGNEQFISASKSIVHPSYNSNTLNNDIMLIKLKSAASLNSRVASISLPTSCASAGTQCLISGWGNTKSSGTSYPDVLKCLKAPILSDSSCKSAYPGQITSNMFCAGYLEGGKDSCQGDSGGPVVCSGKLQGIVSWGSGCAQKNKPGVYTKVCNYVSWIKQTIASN
Procedure: (§1) The enzyme-inhibitory activities in vitro of the compounds of this invention were measured by the following procedure according to the method of M. Muramatsu et al. [[…]. […] After the incubation, 1.5 ml of 2 M alkaline hydroxylamine was added and thoroughly mixed, and allowed to stand at room temperature for 15 minutes.

[4] = target: Human Plasmin (Homo sapiens, UniProt P00747); assay: Inhibitory effect on ester-hydrolyzing activity of human plasmin (TAMe substrate); assay type: biochemical; settings: for inhibition at 1000 µM: read-out: Plasmin percent inhibition; for IC50: Table 4 bracketed value, read-out: Plasmin ID50
Procedure: as §1, with “minutes. […] It was measured by using 0.1 ml of plasmin (generated by activation of plasminogen with streptokinase) and TAMe as substrate following the method described in (1).” for “minutes.”

[5] = target: Bovine Thrombin (Bos taurus, UniProt P00735); assay: Inhibitory effect on ester-hydrolyzing activity of bovine thrombin (TAMe substrate); assay type: biochemical; settings: for inhibition at 1000 µM: at 10^-3 M, in vitro, TAMe, read-out: Thrombin percent inhibition
Procedure: The enzyme-inhibitory activities in vitro of the compounds of this invention were measured by the following procedure according to the method of M. Muramatsu et al. [M. Muramatsu, T. Onishi, S. Makino, Y. Hayashi and S. Fujii: J. Biochem., 58, 214 (1965)]
To 0.1 ml of trypsin (5 μg/ml) were added 0.5 ml of 0.1 M borate buffer solution (pH 8.6) containing 10 mM CaCl2, and 0.1 ml of a varying concentration of an inhibitor solution, and preincubation was carried out at 37° C. for 5 minutes. Then, 10 μmoles of the substrate, TAMe (tosylarginine methyl ester), was added, and incubation was preformed at 37° C. for 30 minutes.
After the incubation, 1.5 ml of 2 M alkaline hydroxylamine was added and thoroughly mixed, and allowed to stand at room temperature for 15 minutes. Then, 1.0 ml of each of 18% trichloroacetic acid, 4 N HCl and 10% FeCl3 was added and thoroughly mixed. If necessary, the mixture was centrifuged at 3,000 rpm for 10 minutes, and the absorbance of the supernatant was measured at 530 nm.
It was measured by using 0.4 ml of bovine thrombin […], 0.02 M sodium phosphate buffer solution (pH 7.4) and TAMe as substrate following the method described in (1).

[6] = target: T2, Human Cl Esterase (Homo sapiens, UniProt P09871); assay: Inhibitory effect on ester-hydrolyzing activity of human Cl esterase (ATEe substrate); assay type: biochemical; settings: for inhibition at 1000 µM: read-out: Cl-esterase percent inhibition; for IC50: in vitro, ATEe, pH 7.4, Table 4 bracketed value, read-out: Cl-esterase ID50
T2 sequence (P09871 438-688 limits assumed): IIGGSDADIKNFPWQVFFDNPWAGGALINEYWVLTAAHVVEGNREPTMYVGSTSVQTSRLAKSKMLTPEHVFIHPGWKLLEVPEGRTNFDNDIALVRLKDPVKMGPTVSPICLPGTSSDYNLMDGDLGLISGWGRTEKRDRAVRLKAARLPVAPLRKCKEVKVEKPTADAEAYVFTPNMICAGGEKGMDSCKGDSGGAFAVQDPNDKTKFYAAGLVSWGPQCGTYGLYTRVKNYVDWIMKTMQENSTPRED
T2 sequence (P09871 16-437 partner limits assumed): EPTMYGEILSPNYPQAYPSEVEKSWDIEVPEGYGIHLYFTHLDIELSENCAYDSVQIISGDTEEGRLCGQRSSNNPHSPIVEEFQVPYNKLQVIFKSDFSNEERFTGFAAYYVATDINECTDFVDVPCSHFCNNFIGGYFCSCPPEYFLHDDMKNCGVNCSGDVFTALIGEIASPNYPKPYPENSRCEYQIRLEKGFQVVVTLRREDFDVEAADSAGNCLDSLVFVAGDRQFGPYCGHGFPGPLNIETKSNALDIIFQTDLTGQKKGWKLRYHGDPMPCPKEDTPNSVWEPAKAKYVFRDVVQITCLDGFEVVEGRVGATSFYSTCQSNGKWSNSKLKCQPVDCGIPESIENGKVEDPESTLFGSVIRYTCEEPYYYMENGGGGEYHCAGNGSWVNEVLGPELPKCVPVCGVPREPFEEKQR
Procedure: It was measured by using 0.1 ml of Cl esterase, 0.1 ml of 0.02 M sodium phosphate buffer solution (pH 7.4 ) and 10 μmoles of ATEe (acetyltyrosine ethyl ester) as substrate following the method described in (1).

[7] = target: Human Plasma Kallikrein (Homo sapiens, UniProt P03952); assay: Inhibitory effect on ester-hydrolyzing activity of human plasma kallikrein (TAMe substrate); assay type: biochemical; settings: for IC50: in vitro, TAMe, Table 4 bracketed value, read-out: Kallikrein ID50; for inhibition at 1000 µM: read-out: Kallikrein percent inhibition
Procedure: as §1

Sequence of Human Plasma Kallikrein (P03952 391-638 limits assumed): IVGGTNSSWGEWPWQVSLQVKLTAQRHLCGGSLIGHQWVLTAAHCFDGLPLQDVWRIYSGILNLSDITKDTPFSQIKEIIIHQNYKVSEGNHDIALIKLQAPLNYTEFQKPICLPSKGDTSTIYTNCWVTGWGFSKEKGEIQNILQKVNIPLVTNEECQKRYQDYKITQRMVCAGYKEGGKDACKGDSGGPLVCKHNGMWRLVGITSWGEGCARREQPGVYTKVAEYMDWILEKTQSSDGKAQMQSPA
Sequence of Human Plasma Kallikrein (P03952 20-390 partner limits assumed): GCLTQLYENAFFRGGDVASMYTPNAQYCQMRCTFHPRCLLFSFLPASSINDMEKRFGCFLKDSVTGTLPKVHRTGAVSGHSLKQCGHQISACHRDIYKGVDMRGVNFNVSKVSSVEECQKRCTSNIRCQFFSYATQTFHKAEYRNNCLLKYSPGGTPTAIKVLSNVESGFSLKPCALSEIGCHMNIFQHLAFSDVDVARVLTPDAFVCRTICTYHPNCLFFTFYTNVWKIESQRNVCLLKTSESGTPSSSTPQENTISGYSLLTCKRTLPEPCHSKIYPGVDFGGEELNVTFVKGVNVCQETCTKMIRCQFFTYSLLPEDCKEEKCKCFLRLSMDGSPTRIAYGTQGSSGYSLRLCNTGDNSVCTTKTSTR
Sequence of Human Plasmin (P00747 581-810 limits assumed): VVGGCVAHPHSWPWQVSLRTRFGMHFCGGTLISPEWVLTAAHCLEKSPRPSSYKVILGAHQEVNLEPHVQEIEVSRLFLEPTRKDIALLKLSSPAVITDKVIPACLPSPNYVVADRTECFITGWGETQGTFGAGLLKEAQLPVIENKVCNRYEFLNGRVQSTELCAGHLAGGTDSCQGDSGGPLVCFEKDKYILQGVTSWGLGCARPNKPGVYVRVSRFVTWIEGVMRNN
Sequence of Human Plasmin (P00747 97-580 partner limits assumed): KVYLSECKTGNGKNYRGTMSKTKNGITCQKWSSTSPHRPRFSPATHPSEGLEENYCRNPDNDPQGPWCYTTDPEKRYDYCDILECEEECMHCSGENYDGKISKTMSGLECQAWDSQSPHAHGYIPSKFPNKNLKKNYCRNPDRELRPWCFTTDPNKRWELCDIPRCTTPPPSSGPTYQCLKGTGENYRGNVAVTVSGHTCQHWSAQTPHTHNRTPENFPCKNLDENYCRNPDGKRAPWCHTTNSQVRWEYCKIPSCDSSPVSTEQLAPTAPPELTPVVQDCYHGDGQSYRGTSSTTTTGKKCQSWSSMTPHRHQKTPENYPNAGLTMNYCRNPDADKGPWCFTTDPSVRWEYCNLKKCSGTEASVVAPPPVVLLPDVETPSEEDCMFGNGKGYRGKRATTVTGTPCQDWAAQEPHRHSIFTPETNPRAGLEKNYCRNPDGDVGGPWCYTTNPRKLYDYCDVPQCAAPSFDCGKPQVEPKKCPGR

Row | SMILES | IC50 ([3]; in vitro, TAMe) | inhibition at 1000 µM ([4]; at 10^-3 M, in vitro, TAMe) | IC50 [5] | inhibition at 1000 µM [3] | IC50 [7] | IC50 [6] | IC50 ([4]; in vitro, TAMe) | also measured
1 | N=C(N)c1ccc(CC(=O)C(=O)O)cc1 [APPA-Na, sodium p-amidinophenyl pyruvate, reference compound] |  |  |  |  |  |  |  | Percent inhibition of clotting activity ([1]; 3 × 10^-4 M, DMSO control): 86.5%; Percent inhibition of clotting activity ([1]; 3 × 10^-5 M, DMSO control): -9.5%; Percent inhibition of clotting activity ([1]; 10^-3 M, DMSO control): 100.0%; Percent inhibition of clotting activity ([1]; 10^-4 M, DMSO control): 44.2%; Percent inhibition of clotting activity ([1]; 10^-5 M, DMSO control): -11.7%; % protective ([2]; 1 mg/kg i.p.): 0%; Survived / Tested ([2]; 1 mg/kg i.p.): 0/9; % protective ([2]; 10 mg/kg i.p.): 33%; Survived / Tested ([2]; 10 mg/kg i.p.): 3/9; % protective ([2]; 100 mg/kg i.p.): 46%; Survived / Tested ([2]; 100 mg/kg i.p.): 5/11
2 | COC(=O)c1ccc(OC(=O)C2CCCc3ccc(N)cc32)cc1 (stereo not drawn) [Compound 91] | 17 µM | 40.7% | 210 µM |  |  |  |  | inhibition at 1000 µM [6]: 27.4%; % protective ([2]; 1 mg/kg i.p.): 0%; Survived / Tested ([2]; 1 mg/kg i.p.): 0/10; % protective ([2]; 10 mg/kg i.p.): 0%; Survived / Tested ([2]; 10 mg/kg i.p.): 0/10; % protective ([2]; 100 mg/kg i.p.): 20%; Survived / Tested ([2]; 100 mg/kg i.p.): 2/10
3 | Cl.N=C(N)Nc1ccc2c(c1)C(C(=O)Oc1ccccc1)CCC2 (stereo not drawn) [Compound 134, phenyl 7-guanidino-1,2,3,4-tetrahydro-1-naphthoate hydrochloride] |  |  | 27 µM | 40.6% | 290 µM | 370 µM |  | inhibition at 1000 µM [4]: < 3.2%; inhibitory activity on plasmin ([4]; text of Examples): no activity at all; inhibitory activity on kallikrein ([7]; text of Examples): had an inhibitory activity; inhibitory activity on Cl-esterase ([6]; text of Examples): had an inhibitory activity; Percent inhibition of clotting activity ([1]; 3 × 10^-4 M, H2O control): 97.8%; Percent inhibition of clotting activity ([1]; 3 × 10^-5 M, H2O control): 11.1%; Percent inhibition of clotting activity ([1]; 10^-3 M, H2O control): 100%; Percent inhibition of clotting activity ([1]; 10^-4 M, H2O control): 42.2%; Percent inhibition of clotting activity ([1]; 10^-5 M, H2O control): 13.3%; % protective ([2]; 1 mg/kg i.p.): 0%; Survived / Tested ([2]; 1 mg/kg i.p.): 0/9; % protective ([2]; 10 mg/kg i.p.): 10%; Survived / Tested ([2]; 10 mg/kg i.p.): 1/10; % protective ([2]; 100 mg/kg i.p.): 70%; Survived / Tested ([2]; 100 mg/kg i.p.): 7/10
4 | N=C(N)Nc1ccc2c(c1)C(C(=O)Oc1ccc(Cl)cc1)CCC2 (stereo not drawn) [Compound 137] | 78 µM |  | 45 µM |  | 120 µM | 250 µM | 1000 µM | Percent inhibition of clotting activity ([1]; 3 × 10^-5 M, H2O control): 10.0%; Percent inhibition of clotting activity ([1]; 10^-4 M, H2O control): 2.0%; Percent inhibition of clotting activity ([1]; 10^-5 M, H2O control): -5.0%
5 | COc1ccc(OC(=O)C2CCCc3ccc(NC(=N)N)cc32)cc1.Cl (stereo not drawn) [Compound 138, p-methoxyphenyl 7-guanidino-1,2,3,4-tetrahydro-1-naphthoate hydrochloride] | 1000 µM | 17% | 32 µM |  | 280 µM |  |  | inhibition at 1000 µM [6]: 39%; % protective ([2]; 1 mg/kg i.p.): 0%; Survived / Tested ([2]; 1 mg/kg i.p.): 0/10; % protective ([2]; 10 mg/kg i.p.): 20%; Survived / Tested ([2]; 10 mg/kg i.p.): 2/10; % protective ([2]; 100 mg/kg i.p.): 30%; Survived / Tested ([2]; 100 mg/kg i.p.): 3/10
6 | COc1cccc(OC(=O)C2CCCc3ccc(NC(=N)N)cc32)c1 (stereo not drawn) [Compound 139] |  |  | 260 µM | 46% |  | 450 µM | 1000 µM | inhibition at 1000 µM [7]: 36.7%
7 | CCCCOc1ccc(OC(=O)C2CCCc3ccc(NC(=N)N)cc32)cc1 (stereo not drawn) [Compound 142] |  |  | 24 µM | 36.9% | 76 µM | 460 µM | 360 µM | Percent inhibition of clotting activity ([1]; 3 × 10^-4 M, DMSO control): 13.0%; Percent inhibition of clotting activity ([1]; 3 × 10^-5 M, DMSO control): -3.0%; Percent inhibition of clotting activity ([1]; 10^-3 M, DMSO control): 61.0%; Percent inhibition of clotting activity ([1]; 10^-4 M, DMSO control): 0.0%; Percent inhibition of clotting activity ([1]; 10^-5 M, DMSO control): -5.0%
8 | CCOC(=O)COC(=O)CCc1ccc(OC(=O)C2CCCc3ccc(NC(=N)N)cc32)cc1 (stereo not drawn) [Compound 157] |  |  | 120 µM | 48.8% |  | 420 µM | 210 µM | inhibition at 1000 µM [7]: 48.5%
9 | CN(C)C(=O)COC(=O)CCc1ccc(OC(=O)C2CCCc3ccc(NC(=N)N)cc32)cc1 (stereo not drawn) [Compound 158] |  |  | 100 µM | 29.1% | 420 µM | 700 µM | 400 µM | 
10 | N=C(N)Nc1ccc2c(c1)C(C(=O)Oc1cccc3ccccc13)CCC2 (stereo not drawn) [Compound 159] | 320 µM | 27.6% |  |  | 110 µM | 180 µM |  | inhibition at 1000 µM [5]: 46%
11 | N=C(N)Nc1ccc2c(c1)C(C(=O)Oc1ccc(OC(=O)C3CCCc4ccc(NC(=N)N)cc43)cc1)CCC2 (stereo not drawn) [Compound 160] |  |  | 54 µM | 40.5% | 230 µM | 430 µM | 100 µM | 
12 | N#Cc1ccc(OC(=O)C2CCCc3c(NC(=N)N)cccc32)cc1 (stereo not drawn) [Compound 162] |  | 49% | 1000 µM |  | 1000 µM |  |  | inhibition at 1000 µM ([3]; at 10^-3 M, in vitro, TAMe): 44.2%; inhibition at 1000 µM [6]: 26.4%
13 | N#Cc1ccc(OC(=O)C2CCCc3ccc(NC(=N)N)cc32)cc1 (stereo not drawn) [Compound 163] | 130 µM |  | 17 µM |  | 52 µM | 400 µM | 73 µM | 
14 | N=C(N)Nc1cccc2c1CCCC2C(=O)Oc1cccc2c1CCCC2 (stereo not drawn) [Compound 164] | 1000 µM | 46.1% |  |  | 1000 µM | 400 µM |  | inhibition at 1000 µM [5]: < 3.2%
15 | N=C(N)Nc1ccc2c(c1)C(C(=O)Oc1cccc3c1CCCC3)CCC2 (stereo not drawn) [Compound 167] |  |  |  |  | 200 µM | 420 µM | 1000 µM | inhibition at 1000 µM ([3]; at 10^-3 M, in vitro, TAMe): 44.8%; inhibition at 1000 µM [5]: < 3.2%
